Several values for one entry are separate records, joined by “and”; a condition that tells them apart may be missing. Equal values may be shown once. Read-outs that look alike come from different tables or passages of the source.
What was measured:
HIV-1 IIIB = test: microbe, parasite or virus in culture; type: cell-based
Outline: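 cMAGI β-galactosidase reporter cells or MT2 cells infected at 0.2-0.5 MOI with wild-type or resistant HIV-1 and incubated 4 days at 37 °C with varying compound concentrations. Infection scored by counting X-gal-stained blue cMAGI cells; MT2 syncytium formation assessed microscopically, cytotoxicity by trypan blue exclusion.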

CXCR4 = target: T1, CXCR4 (Homo sapiens, UniProt P61073); test: Competition with 12G5 mAb binding to CXCR4 on MT2 cells (flow cytometry)
T1 construct: incubated at 4° C. with anti-CXCR4 mAb, 12G5, conjugated to phycoerithrine (PE); endogenous in cells; host or cells: MT2 cells
T1 sequence (P61073 whole entry): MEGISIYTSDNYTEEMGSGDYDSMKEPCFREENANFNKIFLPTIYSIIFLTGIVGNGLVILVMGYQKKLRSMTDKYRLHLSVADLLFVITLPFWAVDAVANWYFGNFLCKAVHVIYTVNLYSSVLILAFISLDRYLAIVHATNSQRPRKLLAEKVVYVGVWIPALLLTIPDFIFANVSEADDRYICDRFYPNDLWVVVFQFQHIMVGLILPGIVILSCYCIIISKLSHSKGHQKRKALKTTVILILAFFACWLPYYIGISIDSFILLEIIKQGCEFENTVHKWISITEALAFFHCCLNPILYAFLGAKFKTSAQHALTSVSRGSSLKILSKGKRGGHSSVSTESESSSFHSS
Outline: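 MT2 cells (0.5×10^6) were incubated for 30 min at 4 °C with PE-conjugated 12G5 anti-CXCR4 mAb, alone or with varying concentrations of pAACs or arginine peptides, in ice-cold PBS/0.1% azide. Cells were then fixed in 1% paraformaldehyde and analysed by flow cytometry (10,000 events), with an isotype control defining non-specific fluorescence.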

[1] = tested on: Streptococcus bovis ATCC 9809; test: MIC, broth microdilution; type: cell-based; settings: Gram positive reference strain
Procedure: (§1) Minimal Inhibition Concentration (MIC) measurements: The Minimal Inhibitory Concentration (MIC) was generally determined by the Broth Microdilution method (based on the protocol described in Clinical and Laboratory Standard Institute (CLSI) NCCLS (2003) M7-A6), as follows:
(§2) A stock solution of each of the tested compounds was prepared by diluting the compound to a 2,560 μg/ml concentration with an appropriate solvent. The stock solution was then serially 2-fold diluted in 96-well microdilution trays using Cation-Adjusted Mueller-Hinton Broth (CAMHB) until reaching the desired range of concentrations, whereas each well contained double the final working concentration. Each row further had one growth control well (medium+inoculum only), and one sterility control well (medium+tested compound). Plates were stored at −70° C. until used.
(§3) The tested microorganisms were used as fresh overnight cultures on blood agar (for gram-positive organisms) or MacConkey agar (for gram-negatives). A standardized inoculum suspension was prepared by the direct colony suspension method, using sterile saline (equivalent to a 0.5 McFarland standard).
(§4) Thus, 50 μl of the inoculum suspension were added to each tested well (except for the sterility control well), and […] was performed during 18-24 hours (depending on the tested microorganism or compound) at 35° C.

E. coli U3075921 = test: MIC, broth microdilution; type: cell-based, Escherichia coli; settings: clinical isolate, Table 7
Procedure: as §1, §2, §3, §4

[2] = tested on: Staphylococcus aureus ATCC 24213; settings: Gram positive reference strain
[3] = tested on: Enterococcus faecalis ATCC 29212; settings: Gram positive reference strain
S. aureus MRSA = settings: Gram positive clinical isolate
S. epidermidis MSSE = settings: Gram positive clinical isolate
S. epidermidis MRSE = settings: Gram positive clinical isolate
[4] = tested on: Enterococcus faecalis (clinical isolate); settings: Gram positive clinical isolate
[5] = tested on: Escherichia coli ATCC 25922; settings: Gram negative reference strain
[6] = tested on: Pseudomonas aeruginosa ATCC 27853; settings: Gram negative reference strain
[7] = tested on: Klebsiella pneumoniae ATCC 13883; settings: Gram negative reference strain
[8] = tested on: Acinetobacter baumannii ATCC 19606; settings: Gram negative reference strain
[9] = tested on: Moraxella catarrhalis ATCC 25238 (Branhamella); settings: Gram negative reference strain
E. Coli-ESBL negative = settings: Gram negative clinical isolate
E. Coli-ESBL positive = settings: Gram negative clinical isolate
[10] = tested on: K. pneumoniae-ESBL negative; settings: Gram negative clinical isolate
[11] = tested on: P. aeruginosa-gentamicin^s, meropenem^s; settings: Gram negative clinical isolate
[12] = tested on: P. aeruginosa-gentamicin^r, meropenem^r; settings: Gram negative clinical isolate
[13] = tested on: A. baumannii-amikacin^r, meropenem^r; settings: Gram negative clinical isolate
E. coli U23773^r = settings: Gram negative clinical isolate
[14] = tested on: Enterococcus faecium (clinical isolate); test: MIC, broth microdilution; type: cell-based; settings: Gram positive clinical isolate; for MIC: read-out: Minimum Inhibitory Concentration

CC(=O)N[C@H](CCCNC(=N)N)C(=O)N[C@H](CCCNC(=N)N)C(=O)N[C@H](CCCNC(=N)N)C(=O)N[C@H](CCCNC(=N)N)C(=O)N[C@H](CCCNC(=N)N)C(=O)N[C@H](CCCNC(=N)N)C(=O)N[C@H](CCCNC(=N)N)C(=O)N[C@H](CCCNC(=N)N)C(=O)N[C@H](CCCNC(=N)N)C(=O)O [Compound 12, D-Arg-9-mer-NHAc]
EC50 (HIV-1 IIIB; Table 4, read-out: EC50 IIIB): 1.5 ± 0.6 µM | inhibition at 2 µM (CXCR4; 2 μM, read-out: % Inhibition of 12G5 mAb binding to CXCR4): 81.3% | inhibition at 10 µM (CXCR4; 10 μM, read-out: % Inhibition of 12G5 mAb binding to CXCR4): 99.6% | Minimum Inhibitory Concentration [1]: 128.0 mg/L | Minimum Inhibitory Concentration (E. coli U3075921): 96.0 mg/L | Minimum Inhibitory Concentration [2]: 128.0 mg/liter and 63.82 μM | Minimum Inhibitory Concentration [3]: 64.0 mg/liter and 31.91 μM | Minimum Inhibitory Concentration (S. aureus MRSA): > 128.0 mg/liter and 63.82 μM | Minimum Inhibitory Concentration (S. epidermidis MSSE): 8.0 mg/liter and 3.99 μM | Minimum Inhibitory Concentration (S. epidermidis MRSE): 96.0 mg/liter and 47.86 μM | Minimum Inhibitory Concentration [4]: 128.0 mg/liter and 63.82 μM | Minimum Inhibitory Concentration [5]: 128.0 mg/liter and 63.82 μM | Minimum Inhibitory Concentration [6]: > 256.0 mg/liter and 127.64 μM | Minimum Inhibitory Concentration [7]: 96.0 mg/liter and 47.86 μM | Minimum Inhibitory Concentration [8]: > 256.0 mg/liter and 127.64 μM | Minimum Inhibitory Concentration [9]: 16.0 mg/liter and 7.98 μM | Minimum Inhibitory Concentration (E. Coli-ESBL negative): 128.0 mg/liter and 63.82 μM | Minimum Inhibitory Concentration (E. Coli-ESBL positive): 64.0 mg/liter and 31.91 μM | Minimum Inhibitory Concentration [10]: 256.0 mg/liter and 127.64 μM | Minimum Inhibitory Concentration [11]: > 256.0 mg/liter and 127.64 μM | Minimum Inhibitory Concentration [12]: > 256.0 mg/liter and 127.64 μM | Minimum Inhibitory Concentration [13]: > 256.0 mg/liter and 127.64 μM | Minimum Inhibitory Concentration (E. coli U23773^r): 64.0 mg/L

NCC1OC(OC2C(CO)OC(OC3C(O)C(N)CC(N)C3OC3OC(CN)C(O)C(O)C3N)C2O)C(N)C(O)C1O (stereo not shown) [Neomycin]
EC50 (HIV-1 IIIB; Human immunodeficiency virus 1, MT2, Table 3, against HIV-1 IIIB virus, read-out: EC50): > 200 µM | MIC ([14]; Enterococcus faecium): 256 µg/mL and 282 µM | Minimum Inhibitory Concentration [13]: 105.61 µM | Minimum Inhibitory Concentration (E. coli U23773^r): 140.81 µM

D-Arg-9-mer-neomycin [Compound 14]
EC50 (HIV-1 IIIB; Table 4, read-out: EC50 IIIB): 1.3 ± 0.4 µM | % Inhibition of 12G5 mAb binding to CXCR4 (CXCR4; 2 μM): 95.3% | % Inhibition of 12G5 mAb binding to CXCR4 (CXCR4; 10 μM): 100% | Minimum Inhibitory Concentration [1]: 24.0 mg/L | Minimum Inhibitory Concentration [14]: 24.0 mg/L | MIC [14]: 8.27 µM | Minimum Inhibitory Concentration (E. coli U3075921): 48.0 mg/liter and 16.54 μM | Minimum Inhibitory Concentration [2]: 32.0 mg/liter and 11.02 μM | Minimum Inhibitory Concentration [3]: 128.0 mg/liter and 44.11 μM | Minimum Inhibitory Concentration (S. aureus MRSA): 32.0 mg/liter and 11.02 μM | Minimum Inhibitory Concentration (S. epidermidis MSSE): 0.52 µM | Minimum Inhibitory Concentration (S. epidermidis MRSE): 8.0 mg/liter and 2.76 μM | Minimum Inhibitory Concentration [4]: 64.0 mg/liter and 22.05 μM | Minimum Inhibitory Concentration [5]: 32.0 mg/liter and 11.02 μM | Minimum Inhibitory Concentration [6]: > 256.0 mg/liter and 88.22 μM | Minimum Inhibitory Concentration [7]: 12.0 mg/liter and 4.14 μM | Minimum Inhibitory Concentration [8]: > 256.0 mg/liter and 88.22 μM | Minimum Inhibitory Concentration [9]: 8.0 mg/liter and 2.76 μM | Minimum Inhibitory Concentration (E. Coli-ESBL negative): 16.0 mg/liter and 5.51 μM | Minimum Inhibitory Concentration (E. Coli-ESBL positive): 24.0 mg/liter and 8.27 μM | Minimum Inhibitory Concentration [10]: 64.0 mg/liter and 22.05 μM | Minimum Inhibitory Concentration [11]: > 256.0 mg/liter and 88.22 μM | Minimum Inhibitory Concentration [12]: > 156.0 mg/liter and 53.76 μM | Minimum Inhibitory Concentration [13]: > 256.0 mg/liter and 88.22 μM | Minimum Inhibitory Concentration (E. coli U23773^r): 32.0 mg/L

Source: patent publication US20060166867A1, “Novel conjugates of polysaccharides and uses thereof” (priority 2003, published 2006)
